Tests used:
glmS ribozyme [1] = assay: High-throughput FRET fluorescence screen of substrate cleavage by bimolecular glmS ribozyme (Example 1, Method 1); type: biochemical; conditions: for Fl21 h/Flg h: fluorescence ratio, high-throughput fluorescence screen, 21 h
Description: The naturally occurring glmS RNA element catalyzes self-cleavage in the presence of modest concentrations (>100 μM) of glucosamine-6-phosphate (Gln6P, FIG. 1A). In the absence of this important metabolite, no cleavage activity is observed. Although the natural sequence of the glmS element forms a unimolecular cis-cleaving ribozyme, active glmS ribozyme can also be constructed as a biomolecular […] ribozyme. In this format, the cleaved strand, termed the substrate, includes the 5′ base pairs that form half of the pairing element 1 (P1) and the conserved nucleotides upstream P1 (FIG. 1B). The non-cleaved ribozyme strand includes the 3′ half of P1 and the remaining sequence of the glmS element. Using this biomolecular format, the 16-nucleotide substrate strand was labeled at the 3′ and the 5′ ends with the fluorescently probes fluorescein (F1) and cy3, respectively. In an uncleaved substrate RNA, emission of the excited state fluorescein is quenched by the enforced proximity of the cy3 quencher. Upon cleavage in the presence of the Gln6P system, the binding of Gln6P (or related derivatives) to the glmS riboswitch can be rapidly screened using standard high-throughput techniques.
After a minimum of 10 hours incubation, the fluorescence intensity of FI increased ˜4 fold in the presence of 160 μM glucosamine-6-phosphate, whereas no observable change was detected in the absence of effector (FIG. 2). […] To further explore the discriminatory limits of this detection system, a library of sixteen Gln6P derivatives was also screened. The resulting glmS binding activities correspond well with the binding activities independently determined by gel electrophoresis methods (Table 1). Detection systems are also being used to screen a novel library of 20,000 compounds (Microsource Discovery Systems, Inc.) unrelated to Gln6P for binding the glmS ribozyme.

glmS ribozyme [2] = assay: Electrophoretic in-line probing of analog binding to glmS ribozyme
glmS ribozyme [3] = assay: PAGE / electrophoretic analysis of glmS ribozyme activation; type: biochemical, S. aureus; conditions: after incubating for 2 hours
Description: This cutoff for functional compounds (“hits”) of 2.5-fold increased fluorescence represents a statistically significant 18 standard deviations over the mean fluorescence value in the absence of ligand (“NL”). […] A similar case exists for glucosamine, which induces a 3.0-fold increase in fluorescence after 44 hours, even though its measured affinity for the ribozyme is more than 100-fold lower than GlcN6P (McCarthy et al., Chem Biol 2005; 12: 1221-1226). Thus, the fluorescent report from the high-throughput screen accurately reflects binding activity for the glmS ribozyme.
Each of the five compounds identified was retested for glmS activation with either the fluorescence screen or by electrophoretic methods. […] Moreover, these types of infrequent false-positive hits have been observed for other fluorescence-based high-throughput screens (Zhang et al., J Biomol Screen 2005; 10: 695-704) and can readily be confirmed or refuted in our case with the secondary ribozyme cleavage assay (Soukup and Breaker, RNA 1999; 5: 1308-1325). One possible explanation for the false positives is that they quench or otherwise modify the fluorescent label on the RNA over the 44 hour time course, or that the compounds become fluorescent over time. Nevertheless, the identification of glucosamine confirms that this screen can identify even low affinity glmS-activating compounds from complex compound libraries.

[4] = tested on: bimolecular glmS ribozyme; assay: High-throughput glmS assay, FRET in 384-well plates (Example 2); type: biochemical, S. aureus; conditions: for relative fluorescence (relative to time zero): 200 μM
Description: High-throughput glmS assay. High-throughput fluorescence assay validation and screening was performed in 384-well black polypropylene plates (Corning part number 3677) in a 10 μL solution of 50 mM HEPES (pH 7.5 at 25° C.), 10 mM MgCl2, and 200 mM KCl, with 0.01% SDS where indicated in the text. A Tecan Aquarius multichannel pipettor (Tecan Group, LTD, Switzerland) was used for automated liquid handling. In a typical experiment, a reaction mixture containing buffer and both RNA domains was transferred into the assay plates with the liquid handler, the fluorescence was measured, and the reaction was initiated by the addition of ˜50 nl of either GlcN6P, an analog of GlcN6P, or a library compound suspended at 10 mM in DMSO using the Tecan pin tool (˜50 μM final concentration of compound). Plates were sealed with non-breathable sealing tape and protected from light for the specified incubation time, at which point the plate was briefly centrifuged and the fluorescence measured. All multiplate fluorescence measurements were conducted with a Wallach Envision (Perkin Elmer, Wellesly, Mass.) plate reader with a 480 nm excitation filter (30 nm bandwidth) and a 535 nm emission filter (25 nm bandwidth).
To enable FRET detection of cleavage, the substrate was synthesized with a 5-(and 6-)-carboxyfluorescein (5/6-FAM) donor at the 3′ end and a Cy3™ acceptor at the 5′ end. When excited at 485 nm, the 5/6-FAM donor normally emits at a maximum wavelength of 526 nm. When the substrate strand is intact, however, the fluorescence of 5/6-FAM is reduced presumably due to quenching by the proximal Cy3™ acceptor. After addition of GlcN6P and cleavage of the substrate strand, the two product strands dissociate, relieving the proximity of 5/6-FAM and Cy3™, with a concomitant increase of 5/6-FAM fluorescence. Similar fluorescence-based systems have been used to detect ribozyme cleavage in real time (Singh et al., RNA 1999; 5: 1348-1356; Hanne et al., Nucleosides Nucleotides 1998; 17: 1835-1850). Using this FRET detection strategy, the addition of 40 μM GlcN6P induces an increase in the fluorescence signal of greater than 6 fold within 20 minutes (FIG. 7B). The modest burst in fluorescence increase could be due to a conformational change in the substrate that occurs upon ligand binding. Tertiary contacts between ribozyme and substrate would constrain the substrate to a greater extent compared to that caused by the short base paired region, thus increasing the average distance between donor and acceptor. Importantly, no fluorescence increase was observed over this time course in the absence of either GlcN6P or the ribozyme.
To facilitate rapid solution-based measurement of cleavage for large compound libraries, the assay conditions were optimized for automated liquid handling and fluorescence measurement in 384-well microplates. To reduce demand for enzyme and substrate RNAs, the concentrations of these molecules were varied to determine the minimal concentration of each that can be used to give a reproducible and statistically significant increase in the fluorescent signal. At 10 nM of each strand, a 4-fold increase in fluorescence was observed after 68 hours when 100 μM GlcN6P was present (FIG. 7C). […] At incubation times less than 48 hours, the increase in fluorescence was noticeably less, most likely because the concentration of the two RNA strands is well below the measured dissociation constant of 0.2 μM, slowing the observed cleavage rate. […]

[5] = tested on: unimolecular glmS ribozyme; conditions: cited from earlier work
ribD RNA = conditions: cited from earlier work
[6] = tested on: bimolecular glmS ribozyme; assay: Single reaction FRET-based kinetic assay of glmS cleavage; type: biochemical, S. aureus; conditions: 40 μM GlcN6P, within 20 minutes
Description: Low-throughput glmS kinetic analyses. All kinetic assays were conducted in 50 mM HEPES (pH 7.5 at 25° C.), 10 mM MgCl2, and 200 mM KCl. To initiate the reaction, GlcN6P was added to give a final concentration of 200 μM. Kinetic assays with radiolabeled substrate were performed as described previously (Soukup, Nucleic Acids Res 2006; 34: 968-975). Rate constants were established by plotting the natural logarithm of the fraction of substrate remaining uncleaved versus time, and then determining the negative slope of the resulting line. For the highest rate constants, only the initial phase of the plots were used because ˜20% of the RNA substrate remained uncleavable. […]
To enable FRET detection of cleavage, the substrate was synthesized with a 5-(and 6-)-carboxyfluorescein (5/6-FAM) donor at the 3′ end and a Cy3™ acceptor at the 5′ end. […] When the substrate strand is intact, however, the fluorescence of 5/6-FAM is reduced presumably due to quenching by the proximal Cy3™ acceptor. After addition of GlcN6P and cleavage of the substrate strand, the two product strands dissociate, relieving the proximity of 5/6-FAM and Cy3™, with a concomitant increase of 5/6-FAM fluorescence. Similar fluorescence-based systems have been used to detect ribozyme cleavage in real time (Singh et al., RNA 1999; 5: 1348-1356; Hanne et al., Nucleosides Nucleotides 1998; 17: 1835-1850). […]

glmS riboswitch = conditions: cited from earlier work
[7] = tested on: bimolecular glmS ribozyme; assay: Kinetic assay with 5'-radiolabeled substrate; type: biochemical, S. aureus; conditions: 0.5 μM ribozyme, 200 μM GlcN6P, saturating substrate, 25° C.
Description: Low-throughput glmS kinetic analyses. All kinetic assays were conducted in 50 mM HEPES (pH 7.5 at 25° C.), 10 mM MgCl2, and 200 mM KCl. To initiate the reaction, GlcN6P was added to give a final concentration of 200 μM. Kinetic assays with radiolabeled substrate were performed as described previously (Soukup, Nucleic Acids Res 2006; 34: 968-975). Rate constants were established by plotting the natural logarithm of the fraction of substrate remaining uncleaved versus time, and then determining the negative slope of the resulting line. For the highest rate constants, only the initial phase of the plots were used because ˜20% of the RNA substrate remained uncleavable. Single reaction FRET-based kinetic assays were performed with λexcit=488 nm (slit width=1 nm), λemit=523 nm (slit width=8 nm).
Although the glmS ribozyme sequence is highly conserved among many bacterial species, the S. aureus sequence was chosen for screening development because of its clinical importance. To facilitate detection of cleavage, the natural self-cleaving glmS ribozyme was converted to a bimolecular ribozyme (FIG. 6B) in which separate substrate and ribozyme oligonucleotides associate via a truncated P1 stem. […]

For `N[C@H]1C(O)O[C@H](CO)[C@@H](O)[C@@H]1O` (some centres unmarked) [Gln com], the “Fl21 h/Flg h” value (glmS ribozyme [1]) was 1.87 and the “Activity by electrophoretic in-line probing” value (glmS ribozyme [2]) was “Yes”.
With `CC(=O)N[C@H]1C(O)O[C@H](COP(=O)(O)O)[C@@H](O)[C@@H]1O` (some centres unmarked) [AcNGln 6P] the “Fl21 h/Flg h” value (glmS ribozyme [1]) was 2.28 and the “Activity by electrophoretic in-line probing” value (glmS ribozyme [2]) was “Weakly”.
In the case of `N[C@H]1C(O)O[C@H](CO)[C@@H](O)[C@@H]1O` (some centres unmarked) [glucosamine], the “cleavage on a gel” value (glmS ribozyme [3]) is given as “stimulates detectable cleavage”, the increase in fluorescence ([4]; after 44 hours) is given as 3.0 fold and the “activity in previously described glmS screen” value ([5]; after 30 minutes) is given as “no observable activity”. The “activation of the glmS ribozyme” value [5] was “cannot activate it”.
In the case of `N[C@@H]1[C@@H](O)[C@H](O)[C@@H](COP(=O)(O)O)O[C@@H]1O` [Gln6P com], the “Fl21 h/Flg h” value (glmS ribozyme [1]) is reported as 2.24 and the “Activity by electrophoretic in-line probing” value (glmS ribozyme [2]) is reported as “Yes”.
In the case of `Cc1cc2nc3c(=O)[nH]c(=O)nc-3n(C[C@H](O)[C@H](O)[C@H](O)CO)c2cc1C` [riboflavin], the “discrimination against ligand relative to FMN” value (ribD RNA) is listed as “approximately three orders of magnitude”.
For `Cc1cc2nc3c(=O)[nH]c(=O)nc-3n(C[C@H](O)[C@H](O)[C@H](O)COP(=O)(O)O)c2cc1C` [FMN, flavin mononucleotide], the Kd (ribD RNA; read-out: apparent KD) is listed as ~0.005 µM.
In the case of `C[N+](C)(C)C1C(O)OC(COP(=O)(O)O)C(O)C1O` (centres unmarked) [Me3N-Gln 6P], the “Fl21 h/Flg h” value (glmS ribozyme [1]) is reported as 1.27 and the “Activity by electrophoretic in-line probing” value (glmS ribozyme [2]) is reported as “No”.
For `COC1OC(COP(=O)(O)O)C(O)C(O)C1N` (stereo not drawn) [β-MeO-Gln 6P], the “Fl21 h/Flg h” value (glmS ribozyme [1]) was 1.02 and the “Activity by electrophoretic in-line probing” value (glmS ribozyme [2]) was “No”.
In the case of `O=P(O)(O)OC[C@H]1OC(O)[C@H](O)[C@@H](O)[C@H]1O` (some centres unmarked) [Gal6P], the “Fl21 h/Flg h” value (glmS ribozyme [1]) is reported as 1.69.
For `N[C@H]1C(O)O[C@H](COP(=O)(O)O)[C@@H](O)[C@@H]1O` (some centres unmarked) [Gln6P, glucosamine-6-phosphate], the “increase in the fluorescence signal” value [6] was “greater than 6 fold”, the “increase in fluorescence intensity of Fl” value (glmS ribozyme [1]; 160 μM glucosamine-6-phosphate, minimum of 10 hours incubation) was ~4 fold and the “Fl21 h/Flg h” value (glmS ribozyme [1]) was 3.36. The “Activity by electrophoretic in-line probing” value (glmS ribozyme [2]) was “Yes”, the “concentration that activates cleavage” value (glmS riboswitch; concentrations as low as) was ≥ 1 µM and the single-turnover rate constant (glmS riboswitch; previously reported) was 1 min⁻¹. For the same molecule, the Kd (glmS riboswitch; read-out: apparent KD) was 200 µM, the increase in fluorescence ([4]; 10 nM of each strand, 100 μM GlcN6P, after 68 hours, 0.01% SDS) was 4 fold and the “relative fluorescence (relative to time zero)” value ([4]; 21 hours) was 3.5. For the same molecule, the “relative fluorescence (relative to time zero)” value ([4]; 44 hours) was 3.4, the increase in fluorescence ([4]; screen of library of twelve GlcN6P analogs) was 3.5 fold and the “apparent rate constant of cleavage” value [7] was 0.25 min⁻¹.
In the case of `O=C[C@H](O)[C@@H](O)[C@H](O)[C@H](O)COP(=O)(O)O` [glucose-6-phosphate], the “activation of the glmS ribozyme” value [5] is given as “cannot activate it”.
With `CNC1C(O)OC(COP(=O)(O)O)C(O)C1O` (centres unmarked) [MeN-Gln 6P] the “Fl21 h/Flg h” value (glmS ribozyme [1]) was 3.49 and the “Activity by electrophoretic in-line probing” value (glmS ribozyme [2]) was “Yes”.

Reference: US8313901B2, “Methods and compositions related to the modulation of riboswitches” (Yale University, priority 2005, dated 2012)
